According to US4442300A, “Therapeutically active compounds” (Aktiebolaget Draco, priority 1980, dated 1984):
Several values for one entry are separate records, joined by “and”; a condition that tells them apart may be missing. Identical values can stand only once. Entries after “also recorded” stand apart in the source; their conditions may differ. Like-named read-outs stand apart in the source and are kept apart here.

Legend:
isolated tracheal muscle = experiment: Bronchodilating effect in vitro on isolated guinea-pig trachea (test C1); conditions: for blockade of the bronchodilating effect by propranolol: propranolol 3.10^-6 mol/l (concentration given for I and II); for Potentiating or inhibiting effect on the bronchodilating effect of terbutaline: 5 min pretreatment with test compound; for EC50: Cavia porcellus
Experimental: The trachea from guinea-pigs was dissected out, cut spirally and transferred to a 10 ml organ bath containing Krebs solution of 37° and aerated with carbogen. The tracheal strip was contracted by pilocarpine (4.10^-6 mol/l) producing a tension of about 1.5 g. Isometric recording was made by use of a transducer FTO3 and a Grass polygraph 7D. Before the administration of the test compound the esterase inhibitor eserin was added to the bath in a concentration of 1.10^-6 mol/l. The concentration of the test substances which produces 50% relaxation (EC50) of the pilocarpine contracted trachea was recorded as well as potentiating or inhibiting influence of the test substances of the invention on the relaxing effect of terbutaline. In this last mentioned test the muscle preparation was pretreated with the test compounds during 5 minutes, before the response of terbutaline was recorded.

[1] = test system: isolated auricles from guinea-pig heart; experiment: In vitro test on isolated guinea-pig auricles (test D1); design: species or system strain Dunkin Hartley; conditions: for Emax: Cavia porcellus; for any chronotropic or inotropic effect: isolated auricles, in words; for potentiating or inhibiting effect on the chronotropic and inotropic effect of terbutaline: same concentration as terbutaline
Experimental: Male guinea-pigs strain Dunkin Hartley (400-500 g) were used. After bleeding and removal of the heart the auricles were dissected free from the ventricular part and submerged into carbogen aerated Krebs solution of 37°. The frequency and force of the spontaneously beating preparation was recorded by a Grass transducer FTO3. In the polygraph (Grass 7D) the signals from the isometric transducer passed a trigger function from the drive amplifier to the tachograph to record the rate.
The esterase inhibitor eserine was added to a concentration of 1.10^-6 mol/l in the organ bath before the drugs to be tested were added. The intrinsic activity of the test compounds on the heart preparation, that is their effect on heart rate (chronotropic effect) and their effect on the force of the heart beats (inotropic effect), and their possible interaction with terbutaline was studied.

heart rate = experiment: In vivo effect of the test compounds on the heart rate in dogs (test D2); design: species or system dog (Beagle); conditions: oral; for Slope of line, increase in heart rate vs. logarithm of corresponding serum conc.: terbutaline 0.01-0.1 mg/kg, compound I 0.3-2.7 mg/kg
Experimental: (§1) Five dogs (Beagle, .male., 13-18 kg) have been used repeatedly in the study. Each dog was used at most once a week. Food was withheld from the animals the night before the experiment (water ad libitum). The test compound was solved or suspended in 8 ml of distilled water, and delivered into the back of the mouth by use of a syringe and a short tube. This oral supply was followed by a water rinse of 8 ml.
The blood was collected from the cephalic veins in the forelegs by use of evacuated tubes. The esterase inhibitor diisopropylfluophosphate (DFP) was added, the samples centrifugated (+5°) and the amount of terbutaline in plasma determined by a massfragmentographic analysis method. The serum level of terbutaline indicates the degree of bronchospasmolytic effect of the test compounds, provided terbutaline is solely responsible for the bronchospasmolytic effect. This method does, however, not measure the intrinsic activity of the test compounds.
(§2) The amounts of the test substances to be administered were selected so that the level of terbutaline, when administered per se, corresponds to the serum levels obtained and found effective in patients at clinical use, that is a level of terbutaline of at least 2 ng/ml serum for 6 to 8 hours. The doses of the test substances of the invention were selected so that the serum levels of terbutaline obtained would correspond approximately with the serum levels obtained after administration of terbutaline per se.
The heart rate was determined by a stethoscope (the mean of three determinations during a 5-minute periode) before the administration of drug and before each blood sampling.
The relative effect of the test compounds on the heart rate of the test animals was illustrated by plotting in a diagram the increase in heart rate measured at a certain serum concentration of terbutaline versus the logarithm of the said terbutaline concentration in serum. Only values before and up to the maximal increase in heart rate were used. This method will produce a graph consisting of a substantially straight line. […]

[2] = cited from earlier work; for duration of bronchospasmolytic activity, in words: compared with terbutaline or salbutamol
[3] = Duration of serum levels of terbutaline after oral administration to unanaesthetized dogs (test A); type: in vivo, dog (Beagle); conditions: p.o., >= 2 ng/ml serum
Experimental: A. Duration of serum levels of terbutaline after administration of compounds of the invention to unanaesthetized dogs
as §1
The blood was collected from the cephalic veins in the forelegs by use of evacuated tubes. The esterase inhibitor diisopropylfluophosphate (DFP) was added, the samples centrifugated (+5°) and the most amount of terbutaline in plasma determined by a massfragmentographic analysis method.
as §2

[4] = test system: histamine-induced bronchospasm; experiment: Protecting effect against histamine-induced bronchospasm after oral administration (test C2); type: in vivo, guinea-pigs, Dunkin-Hartley strain; conditions: for ED50: Cavia porcellus, 0.05 h, histamine aerosol, read-out: Dose protecting 50% of the test animals for more than 3 minutes (ED50)
Experimental: Male guinea-pigs, Dunkin-Hartley strain, 150-200 g, were used in the study. The animals were starved for about 15 hours (water ad libitum) before the administration, by a stomach tube, of test compound or vehicle (controls). To establish an adequate time period between administration and histamine exposure, the maximum plasma level of terbutaline produced from the hydrolysis of the given pro-drugs of terbutaline was determined. Thus, blood samples (in pre-experimental series) were collected from guinea-pigs at different times after the administration of the test compound and the plasma level of terbutaline was determined by a massfragmentographic assay. A peak in the plasma terbutaline was noted 50-60 minutes after the administration, and this time was selected as time for start of histamine exposure.
The histamine aerosol was generated by Bird inline nebulizers from a solution containing 0.02% histamine-HCl and 3% glycerole. The protecting effect was estimated from the delay in appeareance of signs of anoxia in drug-treated animals. […] Drug-treated guinea-pigs without any signs of respiratory influence from the histamine during these first 3 minutes were denoted as protected.

[5] = test system: histamine evoked rise of the insufflation pressure; experiment: Duration of bronchospasmolytic activity after local administration via aerosol, histamine-induced bronchoconstriction (test B); type: in vivo, Guinea-pigs, strain Dunkin-Hartley
Experimental: Guinea-pigs, strain Dunkin-Hartley, of either sex, weighing 500-900 g were anaesthetized by i.p. injection and i.v. infusion of pentobarbital. The animals were artifically ventilated with a Braun constant volume respiration pump giving 70 strokes/min and a stroke volume of 0.75 ml/100 g body weight. Intratracheal pressure (insufflation pressure) was measured by use of a T-junction on the tracheal cannula connected to a Statham pressure transducer P23BC. An increase in intratracheal pressure, indicating bronchoconstriction, was elicited by i.v. injection (v. jugularis) of histamine. The constricting agent was injected every 10 minutes by a timer-controlled perfusor in a dose giving about 80% of the maximum contractile response (1-2.10^-8 mol/kg). The bronchospasmolytic drugs to be tested were solved in aq. dest. containing 3% glycerol and nebulized by use of a Bird Inline Nebulizer (air pressure 0.2 MPa; droplet spectrum around 1 micron). The generated aerosol was lead through the respirator and tracheal cannula. Inhalation of drug was going on during periods of 30 min. The resulting bronchodilator effect was calculated from the percentage reduction of the histamine evoked rise of the insufflation pressure.
The concentration of the test substance in the solved composition that when nebulized produced 50% inhibition of the increased tracheal pressure (ED50) was measured. […]

[6] = read-out: chromotropic effect on isolated auricle (relative values)
[7] = read-out: inotropic effect on isolated auricle (relative values)
[8] = isolated trachea, Table 3, read-out: concentration producing a bronchodilating effect
[9] = pilocarpine contracted trachea (4.10^-6 mol/l), eserin 1.10^-6 mol/l, read-out: Concentration of test substance producing 50% relaxation of trachea (EC50)

SMILES	blockade of the bronchodilating effect by propranolol (isolated tracheal muscle)	Emax [1, 6] [%]	Emax [1, 7] [%]	Slope of line, increase in heart rate vs. logarithm of corresponding serum conc. (heart rate)	Potentiating or inhibiting effect on the bronchodilating effect of terbutaline (isolated tracheal muscle)	EC50 (isolated tracheal muscle; [8]) [nM]	EC50 (isolated tracheal muscle; [9]) [nM]	concentration range for bronchodilating effect relative to terbutaline (isolated tracheal muscle; isolated trachea)	protection against histamine-induced bronchospasm on molar basis relative to terbutaline [4]	ED50 [4]	any chronotropic or inotropic effect [1]	potentiating or inhibiting effect on the chronotropic and inotropic effect of terbutaline [1]	duration of bronchospasmolytic activity, in words [2]	other results
CC(C)(C)NCC(O)c1cc(O)cc(O)c1 (stereo not drawn) [terbutaline, reference compound]	blocked	100	100	1.04	–	–	–	–	–	–	–	–	–	serum concentration necessary for desired therapeutic activity ([2]; Hornblad et al.): at least 2 ng/ml
CC(C)(C)NCC(O)c1cc(OC(=O)c2ccc(OC(=O)C(C)(C)C)cc2)cc(OC(=O)c2ccc(OC(=O)C(C)(C)C)cc2)c1 (stereo not drawn) [test substance of the invention]	–	–	–	–	–	–	–	–	–	–	–	–	–	time with a serum level of terbutaline of 2 ng/ml or more [3]: about 16 hours
CC(C)C(=O)Oc1ccc(C(=O)Oc2cc(OC(=O)c3ccc(OC(=O)C(C)C)cc3)cc(C(O)CNC(C)(C)C)c2)cc1 (stereo not drawn) [II]	not blocked	0	0	–	none and No potentiating or inhibiting activity	~1800	1800 ± 600	about 9 times higher	about equally effective as terbutaline	1.1 mg/kg and 1.6 µmol/kg	none	No potentiating or inhibiting effect	–	–
CC(C)(C)NCC(O)c1cc(OC(=O)c2ccc(OC(=O)C(C)(C)C)cc2)cc(OC(=O)c2ccc(OC(=O)C(C)(C)C)cc2)c1 (stereo not drawn) [Compound I]	not blocked	0	0	0.53	none and No potentiating or inhibiting activity	~1800	1800 ± 600	about 9 times higher	about equally effective as terbutaline	1.1 mg/kg and 1.6 µmol/kg	none	No potentiating or inhibiting effect	–	time with clinically useful serum level of terbutaline relative to terbutaline [3]: at least twice as long; time with a serum level of terbutaline of 2 ng/ml or more ([3]; listed as compound I): 16 h; onset of effect [5]: comparable to that produced by terbutaline; duration of bronchospasmolytic effect compared with terbutaline ([5]; at ED50 dose level): about three times longer; increase in heart rate relative to terbutaline (heart rate; dogs): relatively much lower; also recorded: considerably reduced
Cc1ccc(C(=O)Oc2ccc(C(O)CNC(C)(C)C)cc2OC(=O)c2ccc(C)cc2)cc1 (stereo not drawn) [bitolterol]	–	–	–	–	–	–	–	–	–	–	–	–	comparable with that of salbutamol	–
CC(C)(C)NCC(O)c1ccc(O)c(CO)c1 (stereo not drawn) [salbutamol]	–	–	–	–	–	–	–	–	–	–	–	–	about equal to the duration of terbutaline	–
